{"source": "patent US20230055441A1", "about": "(NONO INC., priority 2020, published 2023)", "key": {"[1]": {"biological_target": "T1, plasmin (Homo sapiens, UniProt P00747)", "T1 construct": "NA-1 was digested with plasmin", "T1 sequence (P00747 581-810 limits assumed, species assumed)": "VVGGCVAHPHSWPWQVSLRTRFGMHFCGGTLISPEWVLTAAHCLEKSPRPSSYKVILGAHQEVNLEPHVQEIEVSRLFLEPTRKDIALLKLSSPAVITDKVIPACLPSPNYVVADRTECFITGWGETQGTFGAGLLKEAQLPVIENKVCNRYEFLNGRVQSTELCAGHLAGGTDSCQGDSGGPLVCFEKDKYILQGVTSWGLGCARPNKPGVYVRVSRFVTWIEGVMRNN", "T1 sequence (P00747 97-580 limits assumed, species assumed)": "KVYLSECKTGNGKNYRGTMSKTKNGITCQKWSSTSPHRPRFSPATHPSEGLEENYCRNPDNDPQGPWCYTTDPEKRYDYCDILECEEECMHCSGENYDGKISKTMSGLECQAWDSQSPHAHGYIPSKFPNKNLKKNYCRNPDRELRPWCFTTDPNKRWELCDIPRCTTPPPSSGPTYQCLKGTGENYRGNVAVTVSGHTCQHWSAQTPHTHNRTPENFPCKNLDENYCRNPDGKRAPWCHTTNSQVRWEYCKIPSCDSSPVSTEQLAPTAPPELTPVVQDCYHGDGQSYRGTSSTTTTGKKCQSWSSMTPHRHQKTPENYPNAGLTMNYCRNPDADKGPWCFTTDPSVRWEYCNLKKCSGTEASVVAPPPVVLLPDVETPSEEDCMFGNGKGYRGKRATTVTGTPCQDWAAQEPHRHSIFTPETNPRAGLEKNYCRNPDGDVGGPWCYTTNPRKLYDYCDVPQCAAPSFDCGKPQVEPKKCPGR", "assay_type": "in vitro ADME", "source_text": "Plasmin is a serum protease induced by thrombolytic agents, such as tPA. Plasmin cleavage sites can occur on the C-terminal side of basic amino acids residues in a peptide formed of L-amino acids. NA-1 was digested with plasmin and the products analyzed by mass spectrometry. […] However, cleavage at the other two sites may occur to a lesser extent."}, "[2]": {"system": "embolic MCA occlusion model", "assay": "Embolic MCA occlusion model (eMCAo)", "assay_type": "in vivo"}, "[3]": {"assay": "Plasma concentrations 15 minutes after subcutaneous dose in rats of the 3-pial vessel occlusion study", "assay_type": "in vivo", "details": "rat, single subcutaneous administration 25, 7.6, 2.5 mg/kg", "description": "Unlike transient models of stroke in rats where much lower doses are required for neuroprotection, neuroprotection in 3 pial vessel occlusion models of stroke seems to require plasma concentrations of nerinetide at or above 2 ug/mL (or molar equivalent). […] Although the plasma levels continue to increase through about 3 hours then decrease, it is important to achieve rapid accumulation in the blood and brain for emergency indications like stroke. […] For pharmacokinetic sample analysis, calibration standard samples at concentrations of 0, 2.5, 5, 10, 15, 20 and 40 ug/mL of nerinetide were prepared by spiking 1 μL of the appropriate stock to 100 μL of plasma. […] Data is presented as mean±SD."}, "[4]": {"system": "TNK-tissue plasminogen activator", "assay": "Degradation in rat plasma with TNK-tissue plasminogen activator", "details": "given simultaneously with TNK", "quoted_text": "(§1) The experiment was repeated using TNK-tissue plasminogen activator in place of tPA."}, "[5]": {"assay": "NA-1 plasma levels after administering NA-1 and tPA to rats", "set-up": "species or system rat", "details": "rats in vivo, rt-PA 5.4 mg/kg, versus NA-1 alone"}, "[6]": {"biological_target": "T2, NMDAR2B:PSD-95 complexes (Rattus norvegicus, UniProt P31016)", "T2 construct": "Cortical stroke areas were collected for analysis; from tissue; host or cells: rat brain, cortical stroke area, after in vivo dosing", "T2 sequence (P31016 whole entry, one chain of several)": "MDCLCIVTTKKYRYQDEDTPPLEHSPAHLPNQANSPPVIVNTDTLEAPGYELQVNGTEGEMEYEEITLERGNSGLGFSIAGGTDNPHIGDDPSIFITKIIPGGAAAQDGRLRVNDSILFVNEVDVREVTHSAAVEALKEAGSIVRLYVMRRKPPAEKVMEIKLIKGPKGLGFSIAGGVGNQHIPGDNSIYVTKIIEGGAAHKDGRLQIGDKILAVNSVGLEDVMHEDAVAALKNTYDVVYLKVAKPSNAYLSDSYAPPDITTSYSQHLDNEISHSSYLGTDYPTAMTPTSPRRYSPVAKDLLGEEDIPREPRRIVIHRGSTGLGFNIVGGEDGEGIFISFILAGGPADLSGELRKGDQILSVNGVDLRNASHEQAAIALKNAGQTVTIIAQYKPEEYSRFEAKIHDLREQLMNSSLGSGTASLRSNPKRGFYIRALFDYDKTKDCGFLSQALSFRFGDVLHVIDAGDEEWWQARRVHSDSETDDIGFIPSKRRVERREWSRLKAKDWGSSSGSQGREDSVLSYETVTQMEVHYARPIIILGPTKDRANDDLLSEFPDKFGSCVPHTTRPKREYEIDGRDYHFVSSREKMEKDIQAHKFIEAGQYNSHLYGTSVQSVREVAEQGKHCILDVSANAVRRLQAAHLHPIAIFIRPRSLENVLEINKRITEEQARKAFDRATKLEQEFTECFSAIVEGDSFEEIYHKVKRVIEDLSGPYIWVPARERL", "assay": "Dissociation of NMDAR2B:PSD-95 complexes in three pial vessel model (3PVo), immunoprecipitation and Western blotting", "assay_type": "in vivo, Sprague-Dawley rats", "details": "7.6 mg/kg 1 hr after stroke onset, brains harvested 2 h after onset, rat 3PVo", "description": "Sprague-Dawley rats were subject to three pial vessel model (3PVo). […] Brains were harvested 2 h after stroke onsets. Cortical stroke areas were collected for analysis. Immunoprecipitations were performed with anti-PSD-95 or anti-NMDAR2B. The amount of PSD-95 and NMDAR2B in samples was analyzed by Western blotting. Reduction in PSD-95-NMDAR2B complex formation was assessed by fold decrease of placebo versus treatment."}, "[7]": {"system": "TNK-tissue plasminogen activator", "assay": "Degradation in human plasma with TNK-tissue plasminogen activator", "details": "given simultaneously with TNK", "quoted_text": "as §1"}, "[8]": {"system": "3-pial vessel occlusion model of stroke", "details": "for infarct volume: versus placebo", "description": "Treatments were administered subcutaneously as a bolus injection, 60 minutes after the onset of stroke. […] Data is presented as mean±SD, N=10/group. The asterisk (*) represents statistical significance when compared to Placebo (ANOVA, with a Tukey's post-hoc analysis, *P<0.0332, **P<0.0021, ***P<0.0002 and ****P<0.0001)."}, "[9]": {"details": "2.6 mg/kg dose; cited from earlier work"}, "[10]": {"system": "rt-PA", "assay": "Degradation in rat plasma in vitro with rt-PA"}, "[11]": {"biological_target": "T1, plasmin", "assay_type": "in vitro ADME", "remark": "listed apart in the source"}, "[12]": {"system": "rt-PA", "assay": "Degradation in human plasma in vitro with rt-PA", "details": "given simultaneously with rt-PA (tPA)"}, "[13]": {"biological_target": "PSD95PDZ2 (Homo sapiens, UniProt P78352)", "sequence (P78352 160-246 limits assumed)": "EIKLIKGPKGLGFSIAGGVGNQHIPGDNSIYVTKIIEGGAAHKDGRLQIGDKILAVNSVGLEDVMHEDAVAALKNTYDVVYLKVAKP", "assay": "Competitive ELISA with biotinylated-NA-1 on coated PSD95PDZ2", "assay_type": "binding", "details": "for EC50 compared among NA-1, D-Tat-L-2B9C and D-NA-1: FIG. 12", "description": "Binding was evaluated with a competitive ELISA assay. A plate was coated with 1 ug/ml PSD95PDZ2 in 50 mM bicarbonate buffer overnight at 4C. The plate was blocked in 2% BSA in PBST (0.05%) for 2 h at room temperature. […] The wells were washed again, and then incubated with TMB solution for 10 min. The reaction was stopped with 100 ul H2SO4. Absorbance was determined at 450 nm with the synergy H1 reader."}, "[14]": {"assay": "Pharmacokinetic analysis in rats by route (subcutaneous, pulmonary instillation, intramuscular, intravenous)", "details": "rat", "protocol": "(§2) Rats were anaesthetized in the supine position (Isoflurane 1.5-%) and allowed to breath spontaneously in 0.5 L/min 02. The left femoral artery was cannulated for blood sampling.\n(§3) Test agents were prepared at the stablish concentration in a total volume of vehicle. Pulmonary instillation was performed by intubation with a 14G catheter connected to a 1 cc syringe and the test agent will be delivered through the catheter. Subcutaneous (SQ or SC) injection was injected into the area of the left flank, no more than 2 ml of total volume per site.\n(§4) Each dose was evaluated in 3 rats for each administration strategy. […] For the first experiment, evaluating two different administration routes (SQ and PI), blood samples were collected at 8 different timepoints: Pre and at 7 additional times (1, 2.5, 5, 10, 15, 30, 60 min) post dose (250 ul/sample). For the 24-hour PK curve experiment, blood samples were collected at 11 timepoints: Pre, 2.5, 5, 10, 15, 30, 60 min, 3 hr, 6 hr, 12 hr and 24 hr.\n(§5) HPLC quantification: Plasma was separated from blood and stored at −80° C. until used. Each sample was precipitated by adding 1M HCl (10 ul/100 ul sample) at >80° C., centrifuged (12,000 rpm×15 min) and the precipitate collected. A 5 cm C—18 RP-HPLC column was equilibrated with 10% acetonitrile with 0.1% TFA at 40° C., the sample was injected and run in an Agilent 1260 Infinity Quaternary LC System. (30 min at 1.5 mL/min; gradient from 10% to 35% acetonitrile in 0.1% TFA; Absorbance detected at 220 nm). Standard curves for HPLC were generated from plasma samples spiked with known quantities of test agent."}, "[15]": {"system": "histamine", "details": "rat, in vivo, iv, 7.6 mg/kg", "protocol": "Blood samples were collected at 11 timepoints: Pre, 2.5, 5, 10, 15, 30, 60 min, 3 hr, 6 hr, 12 hr and 24 hr. Histamine levels were quantified by using commercially available histamine ELISA assay kit (Histamine ELISA-H1531-K01, Eagle Bioscience). The plates were coated with the plasma samples (50 ul/well) incubated for 60 minutes at room temperature on an orbital shaker with medium frequency. Then 100 ul of enzyme conjugate was added to the wells and incubated for 20 minutes at room temperature. Samples were washed again, and then incubated for 25 minutes at room temperature with TMB solution. The reaction was stopped with 100 ul H2SO4. Absorbance was determined on an ELISA plate reader at 450 nm.\nBlood samples were taken at pre-injection and at 0, 1, 2.5, 5, 10, 15, 30- and 60-minutes post dose and used for histamine levels quantification using commercially available kit."}, "[16]": {"system": "rt-PA"}, "[17]": {"details": "rat, in vivo, 25 mg/kg", "protocol": "as §2, §3, §4, §5"}, "[18]": {"biological_target": "tPA (Homo sapiens, UniProt P00750)", "sequence (P00750 36-562)": "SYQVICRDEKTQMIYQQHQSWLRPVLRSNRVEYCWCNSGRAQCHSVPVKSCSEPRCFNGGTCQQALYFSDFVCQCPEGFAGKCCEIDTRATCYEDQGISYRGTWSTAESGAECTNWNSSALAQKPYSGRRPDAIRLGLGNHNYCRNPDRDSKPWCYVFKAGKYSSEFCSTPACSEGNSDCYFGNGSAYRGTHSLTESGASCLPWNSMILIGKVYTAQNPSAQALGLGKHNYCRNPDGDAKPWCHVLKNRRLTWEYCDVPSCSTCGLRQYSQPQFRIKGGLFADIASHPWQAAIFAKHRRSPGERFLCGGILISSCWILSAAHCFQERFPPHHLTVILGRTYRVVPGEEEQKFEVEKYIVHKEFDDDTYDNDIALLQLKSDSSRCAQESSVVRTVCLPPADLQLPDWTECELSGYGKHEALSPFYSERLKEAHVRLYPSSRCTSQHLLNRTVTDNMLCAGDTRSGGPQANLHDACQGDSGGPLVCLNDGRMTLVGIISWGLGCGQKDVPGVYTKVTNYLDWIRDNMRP"}, "[19]": {"details": "without tPA, 7.6 mg/kg IV bolus 1 hour after stroke onset"}, "[20]": {"details": "intramuscular versus intravenous"}}, "note": "Entries after “also recorded” stand apart in the source; their conditions may differ. Like-named read-outs stand apart in the source and are kept apart here. Square brackets hold non-standard residues; d marks the D form. Ends that are not written are not given here. Peptide text beside a SMILES is read from it."}
{"compound": "YGRKKRRQRRRKLSSIESDV [NA-1]", "values": [{"measurement": "plasmin cleavage sites", "setting": "[1]", "value": "cleavage at seven of nine potential sites"}, {"measurement": "infarction volume", "setting": "[2]; tPA co-administered (rt-PA 5.4 mg/kg), 7.6 mg/kg IV 1 hour after stroke onset", "value": "reducing its effect"}, {"measurement": "infarction volume", "setting": "[2]; [19]", "value": "significantly reduced infarction volume and right hemisphere swelling"}, {"measurement": "right hemisphere swelling", "setting": "[2]; [19]", "value": "significantly reduced infarction volume and right hemisphere swelling"}, {"measurement": "dose proportionality between treatment dose and Cmax", "setting": "[3]", "value": "dose proportionality"}, {"measurement": "peptide content / degradation in rat plasma with TNK", "setting": "[4]", "value": "rapid degradation; also recorded: reduced"}, {"measurement": "AUC when administered simultaneously with rt-PA", "setting": "[5]", "value": "significantly reduced"}, {"measurement": "Cmax when administered simultaneously with rt-PA", "setting": "[5]", "value": "significantly reduced"}, {"measurement": "dissociation of preformed NMDAR2B:PSD-95 complexes", "setting": "[6]", "value": "able to dissociate preformed NMDAR2B:PSD-95 complexes"}, {"measurement": "peptide content / degradation in human plasma with TNK", "setting": "[7]", "value": "rapid degradation; also recorded: reduced"}, {"measurement": "infarct volume", "setting": "[8]; 7.6 mg/kg subcutaneous bolus 60 minutes after onset of stroke", "value": "failed to achieved infarct volume reduction"}, {"measurement": "infarct volume", "setting": "[8]; 25 mg/kg subcutaneous bolus 60 minutes after onset of stroke", "value": "significant reduction in infarct volume"}, {"measurement": "plasma concentration required for neuroprotection", "setting": "[8]; rat, in vivo", "value": "≥ 2000", "unit": "ng/mL"}, {"measurement": "effective plasma concentration in human studies", "setting": "[9]", "value": "~10", "unit": "µg/mL"}, {"measurement": "peptide content / degradation in rat plasma with rt-PA", "setting": "[10]; given simultaneously with rt-PA (tPA)", "value": "decayed much more rapidly when tPA was co-administered; also recorded: significantly reduced"}, {"measurement": "time to decay to zero with tPA", "setting": "[10]; treated with tPA", "value": "≤ 15", "unit": "min"}, {"measurement": "degradation by plasmin in PBS", "setting": "[11]", "value": "rapidly degraded"}, {"measurement": "peptide content / degradation in human plasma with rt-PA", "setting": "[12]", "value": "decayed much more rapidly when tPA was co-administered; also recorded: significantly reduced"}, {"measurement": "EC50 compared among NA-1, D-Tat-L-2B9C and D-NA-1", "setting": "[13]", "value": "about the same within experimental error"}, {"measurement": "binding to PSD-95 PDZ2 domain", "setting": "[13]; competitive ELISA", "value": "high binding affinity"}, {"measurement": "AUC, intramuscular", "setting": "[14]; [20]", "value": "somewhat higher AUC"}, {"measurement": "Cmax, intramuscular", "setting": "[14]; [20]", "value": "lower CMax"}, {"measurement": "half-life, intramuscular", "setting": "[14]; [20]", "value": "higher half-life"}, {"measurement": "half-life, subcutaneous", "setting": "[14]; subcutaneous versus same dose intravenous NA-1", "value": "longer half-life"}, {"measurement": "Cmax, subcutaneous", "setting": "[14]; subcutaneous, 25 mg/kg (Table 4), NA-1 versus IV NA-1, others versus subcutaneous NA-1", "value": "much lower CMax"}, {"measurement": "AUC / plasma exposure, subcutaneous", "setting": "[14]; subcutaneous, 25 mg/kg (Table 4), NA-1 versus IV NA-1, others versus subcutaneous NA-1, 25 mg/kg", "value": "somewhat lower AUC"}]}
{"compound": "CC[C@H](C)[C@H](NC(=O)[C@H](CO)NC(=O)[C@H](CO)NC(=O)[C@H](CC(C)C)NC(=O)[C@H](CCCCN)NC(=O)[C@@H](CCCNC(=N)N)NC(=O)[C@@H](CCCNC(=N)N)NC(=O)[C@@H](CCCNC(=N)N)NC(=O)[C@@H](CCC(N)=O)NC(=O)[C@@H](CCCNC(=N)N)NC(=O)[C@@H](CCCNC(=N)N)NC(=O)[C@@H](CCCCN)NC(=O)[C@@H](CCCCN)NC(=O)[C@@H](CCCNC(=N)N)NC(=O)CNC(=O)[C@H](N)Cc1ccc(O)cc1)C(=O)N[C@@H](CCC(=O)O)C(=O)N[C@@H](CO)C(=O)N[C@@H](CC(=O)O)C(=O)N[C@H](C(=O)O)C(C)C", "note": "[D-TAT-L-2B9c] (H-[dY]G[dR][dK][dK][dR][dR][dQ][dR][dR][dR]KLSSIESDV-OH; N-terminus and C-terminus assumed)", "values": [{"measurement": "histamine release", "setting": "[15]", "value": "did result in significant histamine release"}, {"measurement": "peptide content / degradation in human plasma with rt-PA", "setting": "[16]", "value": "resistant to proteolysis"}, {"measurement": "degradation by plasmin in PBS", "setting": "[11]", "value": "resistant to plasmin cleavage"}, {"measurement": "AUC / plasma exposure, subcutaneous", "setting": "[17]", "value": "also increased Cmax and AUC relative to subcutaneous NA-1 but not to the same extent"}, {"measurement": "Cmax, subcutaneous", "setting": "[17]", "value": "also increased Cmax and AUC relative to subcutaneous NA-1 but not to the same extent"}, {"measurement": "degradation by tPA or TNK in PBS without plasma", "setting": "[18]", "value": "no degradation"}, {"measurement": "IC50", "setting": "[13]", "value": "< 5", "unit": "µM"}, {"measurement": "EC50 compared among NA-1, D-Tat-L-2B9C and D-NA-1", "setting": "[13]", "value": "about the same within experimental error"}]}
